This note sets out measurements from ChEMBL document CHEMBL1933031, “Discovery and bioactivity of 4-(2-arylpyrido[3',2':3,4]pyrrolo[1,2-f][1,2,4]triazin-4-yl) morpholine derivatives as novel PI3K inhibitors” (Bioorg Med Chem Lett, 2012).

Test [1] has as its target Platelet-derived growth factor receptor alpha (Homo sapiens) (UniProt P16234). As to the kind of experiment: Inhibition of PDGFRalpha at 10 uM.
Test [2] deals with Proto-oncogene tyrosine-protein kinase receptor Ret (Homo sapiens) (UniProt P07949). The test is described as follows: Inhibition of RET at 10 uM.
The target in test [3] is Platelet-derived growth factor receptor beta (Homo sapiens) (UniProt P09619). The test is described as follows: Inhibition of PDGFRbeta at 10 uM.
Chain of Platelet-derived growth factor receptor beta (Homo sapiens) (P09619 whole entry): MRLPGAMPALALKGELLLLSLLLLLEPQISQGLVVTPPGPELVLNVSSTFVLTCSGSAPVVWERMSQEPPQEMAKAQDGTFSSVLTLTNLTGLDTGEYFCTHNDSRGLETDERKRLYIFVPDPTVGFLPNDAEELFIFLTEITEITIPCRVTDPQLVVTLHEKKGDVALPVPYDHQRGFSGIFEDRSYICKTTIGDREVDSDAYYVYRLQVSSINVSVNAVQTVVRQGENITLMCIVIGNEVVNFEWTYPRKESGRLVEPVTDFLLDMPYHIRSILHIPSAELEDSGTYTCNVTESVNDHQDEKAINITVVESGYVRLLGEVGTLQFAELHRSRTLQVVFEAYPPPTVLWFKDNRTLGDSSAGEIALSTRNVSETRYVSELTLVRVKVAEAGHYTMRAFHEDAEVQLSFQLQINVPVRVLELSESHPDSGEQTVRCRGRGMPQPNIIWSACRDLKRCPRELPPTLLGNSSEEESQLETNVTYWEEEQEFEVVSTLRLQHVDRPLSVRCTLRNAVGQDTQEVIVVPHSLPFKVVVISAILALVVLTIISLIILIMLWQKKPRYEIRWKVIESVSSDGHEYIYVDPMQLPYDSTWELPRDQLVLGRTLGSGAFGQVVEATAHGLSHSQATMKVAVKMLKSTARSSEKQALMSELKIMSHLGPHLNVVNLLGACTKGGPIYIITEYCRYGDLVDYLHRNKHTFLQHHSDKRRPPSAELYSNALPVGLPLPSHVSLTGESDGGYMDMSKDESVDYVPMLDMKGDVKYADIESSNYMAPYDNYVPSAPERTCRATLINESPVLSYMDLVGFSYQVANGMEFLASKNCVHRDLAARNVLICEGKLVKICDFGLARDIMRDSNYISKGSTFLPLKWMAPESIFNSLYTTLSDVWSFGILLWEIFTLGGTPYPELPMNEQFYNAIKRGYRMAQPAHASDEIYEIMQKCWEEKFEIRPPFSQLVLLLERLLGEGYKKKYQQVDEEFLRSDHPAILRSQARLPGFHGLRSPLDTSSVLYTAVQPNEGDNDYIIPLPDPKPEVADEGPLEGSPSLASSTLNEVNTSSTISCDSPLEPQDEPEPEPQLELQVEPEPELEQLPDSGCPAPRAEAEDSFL
Test [4] deals with Mast/stem cell growth factor receptor Kit (Homo sapiens) (UniProt P10721). As to the kind of experiment: Inhibition of c-Kit at 10 uM.
Test [5] in a line: Cell cycle arrest in human Rh30 cells assessed as increase in G1 cell population at 1 to 10 uM by flow cytometric analysis. It counts as functional, cell-based. Conditions: SJRH30. A general note: In flow cytometry, cells or beads pass a laser one at a time.
Test [6] addresses Phosphatidylinositol 4,5-bisphosphate 3-kinase catalytic subunit alpha isoform (Homo sapiens, UniProt P42336). The test is described as follows: Inhibition of PI3Kalpha by luminescent kinase assay.
Test [7] has as its target Hepatocyte growth factor receptor (Homo sapiens) (UniProt P08581). The test is described as follows: Inhibition of c-Met at 10 uM.
Test [8] is described as follows: Inhibition of PI3K-mediated p70S6K1 phosphorylation at Thr389 at 3 uM by Western blot analysis. A general note: Immunoblotting shows a protein as a band on a membrane.
In test [9] the test system is HT-29. As to the kind of experiment: Antiproliferative activity against human HT-29 cells. Type of test: functional, cell-based.
Test [10] deals with ECV-304. As to the kind of experiment: Antiproliferative activity against human ECV304 cells. Type of test: functional, cell-based.
The nature of test [11]: Antiproliferative activity against human BEL-7402 cells.
The target of test [12] is Vascular endothelial growth factor receptor 2 (Homo sapiens) (UniProt P35968). The conditions noted are these: at 10 µM.
Description: Inhibition of KDR at 10 uM
Test [13] deals with MCF7. As to the kind of experiment: Antiproliferative activity against human MCF7 cells. It counts as functional, cell-based.
Test [14] is described as follows: Inhibition of PI3K-mediated Akt phosphorylation at Ser473 at 3 uM by Western blot analysis.
The target of test [15] is Macrophage-stimulating protein receptor (Homo sapiens) (UniProt Q04912). As to the kind of experiment: Inhibition of RON at 10 uM.
Test [16] concerns the target Epidermal growth factor receptor (Homo sapiens) (UniProt P00533). Conditions: at 10 µM.
Description: Inhibition of EGFR at 10 uM
A short description of test [17]: Inhibition of PI3K-mediated mTOR pathway by Western blot analysis.
Test [18] has as its target T1, Ephrin type-B receptor 2 (Homo sapiens) (UniProt P29323).
T1 sequence (whole entry): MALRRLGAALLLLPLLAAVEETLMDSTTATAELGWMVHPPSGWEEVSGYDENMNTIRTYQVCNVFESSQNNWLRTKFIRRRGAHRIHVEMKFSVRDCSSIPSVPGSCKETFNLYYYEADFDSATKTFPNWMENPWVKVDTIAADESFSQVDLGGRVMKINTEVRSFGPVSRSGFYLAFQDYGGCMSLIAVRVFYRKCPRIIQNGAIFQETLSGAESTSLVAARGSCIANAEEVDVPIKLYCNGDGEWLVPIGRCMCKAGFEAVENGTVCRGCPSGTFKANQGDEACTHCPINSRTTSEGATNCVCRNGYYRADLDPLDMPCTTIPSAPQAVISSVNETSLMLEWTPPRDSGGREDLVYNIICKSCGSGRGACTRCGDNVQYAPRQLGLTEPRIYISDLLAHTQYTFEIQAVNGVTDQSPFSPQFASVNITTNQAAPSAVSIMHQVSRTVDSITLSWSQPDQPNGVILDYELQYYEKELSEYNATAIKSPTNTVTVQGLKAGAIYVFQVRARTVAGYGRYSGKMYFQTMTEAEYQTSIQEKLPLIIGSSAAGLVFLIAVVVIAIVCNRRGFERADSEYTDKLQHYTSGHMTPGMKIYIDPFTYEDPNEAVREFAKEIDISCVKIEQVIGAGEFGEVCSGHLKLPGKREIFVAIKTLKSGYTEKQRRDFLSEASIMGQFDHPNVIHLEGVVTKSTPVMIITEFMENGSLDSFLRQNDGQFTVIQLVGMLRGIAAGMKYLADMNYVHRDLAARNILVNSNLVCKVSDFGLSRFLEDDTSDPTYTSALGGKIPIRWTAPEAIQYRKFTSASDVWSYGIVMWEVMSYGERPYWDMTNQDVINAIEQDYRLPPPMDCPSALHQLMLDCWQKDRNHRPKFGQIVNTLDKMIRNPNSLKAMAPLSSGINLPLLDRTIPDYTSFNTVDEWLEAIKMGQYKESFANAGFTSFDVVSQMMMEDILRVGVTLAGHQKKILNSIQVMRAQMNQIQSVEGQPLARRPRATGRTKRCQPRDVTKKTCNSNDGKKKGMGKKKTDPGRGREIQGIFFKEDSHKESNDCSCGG
The test is described as follows: Inhibition of EPH-B2 at 10 uM.

The target of test [19] is Proto-oncogene tyrosine-protein kinase Src (Homo sapiens) (UniProt P12931). Conditions: at 10 µM.
Description: Inhibition of c-Src at 10 uM
Test [20] has as its target Receptor tyrosine-protein kinase erbB-2 (Homo sapiens) (UniProt P04626). The test is described as follows: Inhibition of ErbB2 at 10 uM.
Test [21] can be described thus: Cell cycle arrest in human Rh30 cells assessed as increase in subG1 cell phase at 10 uM by flow cytometric analysis. It counts as functional, cell-based. Conditions: SJRH30.
Test [22] is described as follows: Inhibition of PI3K-mediated Akt pathway by Western blot analysis.
Test [23] addresses Insulin-like growth factor 1 receptor (Homo sapiens) (UniProt P08069). As to the kind of experiment: Inhibition of IGF1R at 10 uM.

Each structure is given as a SMILES string. Calls of active or inactive are those of the source. No cut-off for these calls is given here.

Chain of Hepatocyte growth factor receptor (Homo sapiens) (P08581 whole entry): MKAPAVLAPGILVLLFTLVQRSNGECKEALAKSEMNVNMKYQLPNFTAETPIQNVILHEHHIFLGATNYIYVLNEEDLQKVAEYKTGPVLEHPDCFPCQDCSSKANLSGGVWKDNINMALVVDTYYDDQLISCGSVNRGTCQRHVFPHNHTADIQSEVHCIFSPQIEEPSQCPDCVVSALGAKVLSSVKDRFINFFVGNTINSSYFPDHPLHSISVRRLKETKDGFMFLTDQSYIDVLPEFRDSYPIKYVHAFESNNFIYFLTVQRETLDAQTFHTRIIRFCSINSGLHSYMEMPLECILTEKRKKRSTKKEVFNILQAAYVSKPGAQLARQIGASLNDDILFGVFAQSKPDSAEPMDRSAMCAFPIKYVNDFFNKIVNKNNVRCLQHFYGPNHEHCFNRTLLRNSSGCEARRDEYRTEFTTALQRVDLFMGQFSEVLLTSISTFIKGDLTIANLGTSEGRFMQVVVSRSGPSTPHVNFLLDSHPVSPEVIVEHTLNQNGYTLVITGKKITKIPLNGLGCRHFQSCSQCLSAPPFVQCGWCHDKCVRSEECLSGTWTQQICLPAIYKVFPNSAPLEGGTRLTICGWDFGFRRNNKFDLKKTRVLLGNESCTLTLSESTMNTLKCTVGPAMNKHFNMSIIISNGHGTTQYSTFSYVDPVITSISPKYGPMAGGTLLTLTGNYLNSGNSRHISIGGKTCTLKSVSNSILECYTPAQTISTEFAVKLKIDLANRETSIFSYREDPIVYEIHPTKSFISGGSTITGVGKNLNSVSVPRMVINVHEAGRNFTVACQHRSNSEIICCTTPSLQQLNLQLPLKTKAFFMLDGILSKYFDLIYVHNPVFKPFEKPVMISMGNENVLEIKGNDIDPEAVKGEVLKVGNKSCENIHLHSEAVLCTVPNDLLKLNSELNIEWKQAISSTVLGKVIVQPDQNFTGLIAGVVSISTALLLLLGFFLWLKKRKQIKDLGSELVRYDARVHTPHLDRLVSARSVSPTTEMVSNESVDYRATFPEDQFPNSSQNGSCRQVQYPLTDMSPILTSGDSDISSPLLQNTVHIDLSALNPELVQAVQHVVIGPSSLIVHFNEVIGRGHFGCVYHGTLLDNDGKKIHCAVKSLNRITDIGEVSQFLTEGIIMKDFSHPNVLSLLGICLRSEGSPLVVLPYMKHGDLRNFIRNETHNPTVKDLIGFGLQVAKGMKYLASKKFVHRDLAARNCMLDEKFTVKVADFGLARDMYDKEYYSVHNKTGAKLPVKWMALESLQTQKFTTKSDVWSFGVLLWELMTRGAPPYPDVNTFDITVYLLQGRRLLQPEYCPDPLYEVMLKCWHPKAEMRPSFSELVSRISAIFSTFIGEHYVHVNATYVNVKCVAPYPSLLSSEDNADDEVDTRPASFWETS
Chain of Insulin-like growth factor 1 receptor (Homo sapiens) (P08069 31-736 limits assumed): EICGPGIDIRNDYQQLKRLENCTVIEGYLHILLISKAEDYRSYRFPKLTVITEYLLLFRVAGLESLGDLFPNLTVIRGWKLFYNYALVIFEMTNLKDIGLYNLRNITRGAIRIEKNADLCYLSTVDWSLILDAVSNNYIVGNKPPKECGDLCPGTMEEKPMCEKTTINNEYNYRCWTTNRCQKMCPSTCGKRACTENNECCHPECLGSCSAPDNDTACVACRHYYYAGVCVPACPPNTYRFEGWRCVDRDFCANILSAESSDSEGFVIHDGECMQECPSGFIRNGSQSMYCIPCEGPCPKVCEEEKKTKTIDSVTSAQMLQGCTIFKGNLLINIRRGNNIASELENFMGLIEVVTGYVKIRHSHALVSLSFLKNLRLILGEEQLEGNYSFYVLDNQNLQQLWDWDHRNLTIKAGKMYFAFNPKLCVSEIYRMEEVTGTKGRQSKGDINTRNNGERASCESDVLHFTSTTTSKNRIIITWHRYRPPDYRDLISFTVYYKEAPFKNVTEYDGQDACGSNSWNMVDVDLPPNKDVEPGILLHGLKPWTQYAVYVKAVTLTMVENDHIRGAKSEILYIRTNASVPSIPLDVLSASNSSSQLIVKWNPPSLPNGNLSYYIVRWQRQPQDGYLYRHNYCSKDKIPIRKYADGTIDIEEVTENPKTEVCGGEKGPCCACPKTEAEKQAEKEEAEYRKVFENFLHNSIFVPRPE
Chain of Insulin-like growth factor 1 receptor (Homo sapiens) (P08069 741-1367 limits assumed): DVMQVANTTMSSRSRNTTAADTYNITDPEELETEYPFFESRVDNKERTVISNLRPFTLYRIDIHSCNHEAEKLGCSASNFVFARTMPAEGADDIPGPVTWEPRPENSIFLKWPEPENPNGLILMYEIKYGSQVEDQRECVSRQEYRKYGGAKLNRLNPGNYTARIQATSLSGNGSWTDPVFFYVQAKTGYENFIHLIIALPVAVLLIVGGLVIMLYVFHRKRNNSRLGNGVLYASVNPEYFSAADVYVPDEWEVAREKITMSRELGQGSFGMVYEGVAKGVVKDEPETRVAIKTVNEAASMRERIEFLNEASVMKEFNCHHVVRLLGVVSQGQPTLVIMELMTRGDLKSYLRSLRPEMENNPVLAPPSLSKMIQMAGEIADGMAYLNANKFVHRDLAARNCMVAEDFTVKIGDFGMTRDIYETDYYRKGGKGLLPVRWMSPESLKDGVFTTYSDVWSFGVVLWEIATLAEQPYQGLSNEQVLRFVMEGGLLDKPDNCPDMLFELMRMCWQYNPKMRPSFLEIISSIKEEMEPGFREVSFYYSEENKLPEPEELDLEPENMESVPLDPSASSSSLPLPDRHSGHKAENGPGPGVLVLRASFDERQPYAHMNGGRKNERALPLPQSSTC
Chain of Epidermal growth factor receptor (Homo sapiens) (P00533 whole entry): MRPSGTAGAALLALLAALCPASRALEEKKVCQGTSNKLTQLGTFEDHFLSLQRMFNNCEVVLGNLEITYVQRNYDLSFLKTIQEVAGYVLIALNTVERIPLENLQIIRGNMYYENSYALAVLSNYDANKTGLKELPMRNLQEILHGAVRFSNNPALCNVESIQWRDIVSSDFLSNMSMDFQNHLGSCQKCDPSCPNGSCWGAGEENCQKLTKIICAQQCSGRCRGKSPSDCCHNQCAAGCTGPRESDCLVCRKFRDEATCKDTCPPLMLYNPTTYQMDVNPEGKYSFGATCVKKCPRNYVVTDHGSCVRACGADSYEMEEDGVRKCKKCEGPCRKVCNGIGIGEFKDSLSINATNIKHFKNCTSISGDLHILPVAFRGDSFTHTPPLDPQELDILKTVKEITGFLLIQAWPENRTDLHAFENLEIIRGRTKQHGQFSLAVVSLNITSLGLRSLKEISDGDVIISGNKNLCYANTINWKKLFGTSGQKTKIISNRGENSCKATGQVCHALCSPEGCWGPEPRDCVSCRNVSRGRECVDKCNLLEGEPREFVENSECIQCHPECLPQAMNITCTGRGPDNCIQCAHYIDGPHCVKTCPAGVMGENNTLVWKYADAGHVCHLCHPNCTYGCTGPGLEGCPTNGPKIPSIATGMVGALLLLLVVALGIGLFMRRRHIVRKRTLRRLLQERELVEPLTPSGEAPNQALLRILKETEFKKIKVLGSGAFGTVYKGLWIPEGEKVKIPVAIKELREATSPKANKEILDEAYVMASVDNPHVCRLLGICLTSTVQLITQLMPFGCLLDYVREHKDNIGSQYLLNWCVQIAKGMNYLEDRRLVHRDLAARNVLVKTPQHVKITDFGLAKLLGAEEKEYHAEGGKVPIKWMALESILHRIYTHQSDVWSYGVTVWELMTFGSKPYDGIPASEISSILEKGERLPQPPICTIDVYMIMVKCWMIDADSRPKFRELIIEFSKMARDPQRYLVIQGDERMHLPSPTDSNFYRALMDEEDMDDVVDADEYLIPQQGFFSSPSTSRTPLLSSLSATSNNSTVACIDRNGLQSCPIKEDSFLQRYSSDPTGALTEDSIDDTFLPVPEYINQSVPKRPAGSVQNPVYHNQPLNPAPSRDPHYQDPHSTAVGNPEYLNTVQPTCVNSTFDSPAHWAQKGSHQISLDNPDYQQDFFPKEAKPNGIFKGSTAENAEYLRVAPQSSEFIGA

Broadly, the inhibition is the relative decrease from the control value, in per cent. As for `CCN(CC)CCNC(=O)c1c(C)[nH]c(/C=C2\C(=O)Nc3ccc(F)cc32)c1C`, the inhibition in [1] was found to be 93%; in test [2], 84.8%; in test [3] it was 90.6%; in [4], 84.8%.
The term IC50 denotes the midpoint of a concentration-inhibition curve. The low end stands for inhibition by little substance, the high end for a need for much substance. Consider `C=CC(=O)Oc1cccc(-c2nc(N3CCOCC3)c3cc4ncccc4n3n2)c1`, for which the inhibition in [1] amounted to 29.4%; in [7], 32.8%; in test [2], 31.9%; in test [12], 28.4%; in test [15], 3.3%; in test [3], 6.3%. The inhibition was determined as 17.8% in test [16]; 18.9% in test [4]; 53.4% in test [18]; 56.2% in test [19]; 21.3% in [20]; 41.1% in test [23]. Besides, the result in test [5] and in [21] was Active. For the same compound, the IC50 in [6] came out at 0.0478 µM; in test [9], 29.9 µM; in test [10], 4 µM; in [11], 7.9 µM; in test [13] it was 15.3 µM. The inhibition entry in test [8] and in [14] was “Active” throughout. In addition, the “mTOR pathway inhibition (qualitative)” value in test [17] was “Dose-dependent effect”. For the same compound, the “Akt pathway inhibition (qualitative)” value in [22] is “Dose-dependent effect”.
On to `CS(=O)(=O)CCNCc1ccc(-c2ccc3ncnc(Nc4ccc(OCc5cccc(F)c5)c(Cl)c4)c3c2)o1`, for which, in test [20], the inhibition turned out to be 78%.
As to `Oc1cccc(-c2nc(N3CCOCC3)c3cc4ncccc4n3n2)c1`, the inhibition was found to be 41.2% in test [1]; 43.8% in [7]; 37.8% in test [2]; 39.2% in [12]; 37% in test [15]; 42.4% in [3]. The inhibition was 17.4% in test [16]; 49.4% in test [4]; 44% in test [18]; 65.3% in test [19]; 10.9% in test [20]; 35.2% in [23]. In addition, the result in [5] and in [21] was Active. The half-maximal inhibitory concentration (IC50) in [6] was found to be 0.0336 µM; in test [9], 22.3 µM; in test [10] it was 6.7 µM; in test [11], 13.1 µM; in test [13], 22.7 µM. The inhibition result in [8] and in [14] was “Active” throughout. The “mTOR pathway inhibition (qualitative)” value in test [17] is “Dose-dependent effect”. Further, the “Akt pathway inhibition (qualitative)” value in [22] is “Dose-dependent effect”.
On to `Cc1nc(Nc2ncc(C(=O)Nc3c(C)cccc3Cl)s2)cc(N2CCN(CCO)CC2)n1`, for which the inhibition in test [18] amounted to 89.2%.
Consider `CCC(=O)Oc1cccc(-c2nc(N3CCOCC3)c3cc4ncccc4n3n2)c1`, for which the inhibition in [1] worked out at 13%; in test [7], 31.7%; in test [2] it was 43%; in test [12] it was 25%; in [15], 17.6%; in [3], 11.8%. Moreover, the inhibition was found to be 26.8% in test [16]; 29% in [4]; 48.6% in [18]; 52.8% in test [19]; 12.5% in [20]; 23.7% in [23]. Besides, the result in test [5] and in test [21] was Active. The IC50 in test [6] worked out at 0.544 µM; in [9] it was 30.4 µM; in test [10], 4 µM; in test [11], 8.6 µM; in [13] it was 18.7 µM. Also, the inhibition result in test [8] and in [14] was “Active” throughout. In test [17], the “mTOR pathway inhibition (qualitative)” value was “Dose-dependent effect”. Further, the “Akt pathway inhibition (qualitative)” value in test [22] was “Dose-dependent effect”.
Compound `N#C/C(=C\c1ccc(O)c(O)c1)C(=O)c1ccc(O)c(O)c1` yielded an inhibition in test [23] of 82.2%.
Consider `Oc1cccc(-c2nc(N3CCOCC3)c3oc4ncccc4c3n2)c1` [PI-103], for which, in [5], the result was Active. For the same compound, the 50% inhibitory concentration (IC50) is more than 50 µM in test [9], 6.3 µM in test [10], 7 µM in test [11] and 22.4 µM in [13].
With `CCCC(=O)Oc1cccc(-c2nc(N3CCOCC3)c3cc4ncccc4n3n2)c1`, the inhibition in test [1] stood at 14%; in [7], 33.9%; in test [2], 25.8%; in test [12], 25.6%; in test [15] it was 7.4%; in test [3], 5.1%. Moreover, the inhibition in [16] was found to be 16%; in test [4], 25.4%; in test [18] it was 53%; in test [19], 48.2%; in test [20], 12.5%; in [23] it was 15.6%. The outcome in test [5] and in test [21] was Active. Moreover, the half-maximal inhibitory concentration (IC50) stood at 0.511 µM in test [6]; 16.4 µM in test [9]; 1.4 µM in test [10]; 3.6 µM in test [11]; 6.1 µM in test [13]. Further, the inhibition entry in test [8] and in test [14] was “Active” in each case. Moreover, the “mTOR pathway inhibition (qualitative)” value in [17] is “Dose-dependent effect”. The “Akt pathway inhibition (qualitative)” value in test [22] was “Dose-dependent effect”.
Turning to `O=C(Oc1cccc(-c2nc(N3CCOCC3)c3cc4ncccc4n3n2)c1)c1ccncc1`, the inhibition in test [1] worked out at 40%; in test [7], 34.8%; in test [2] it was 28.9%; in test [12], 35.4%; in test [15], 27.2%; in [3], 34.7%. For the same compound, the inhibition was 6.2% in test [16]; 45.2% in test [4]; 53.8% in [18]; 67.2% in [19]; 23.3% in test [20]; 39.8% in [23]. For the same compound, the result in test [5] and in [21] was Active. Further, the half-inhibitory concentration (IC50) in [6] was determined as 0.421 µM; in [9], 28 µM; in test [10], 10 µM; in [11], 13.3 µM; in test [13], 20 µM. Moreover, the inhibition result in test [8] and in [14] was “inactive” throughout. In addition, the “mTOR pathway inhibition (qualitative)” value in test [17] was “Dose-dependent effect”. The “Akt pathway inhibition (qualitative)” value in [22] is “Dose-dependent effect”.
As to `Cc1[nH]c(/C=C2\C(=O)Nc3ccc(S(=O)(=O)N(C)c4cccc(Cl)c4)cc32)c(C)c1C(=O)N1CCN(C)CC1`, the inhibition in test [7] was found to be 61.8%; in test [15] it was 52.2%.
